Read-outs that look alike come from different tables or passages of the source.
Legend:
[1] = molecular target: T1, aggregated alpha-synuclein (Homo sapiens, UniProt P37840); experiment: Saturation binding assay, protocol 2a, alpha-synuclein fibrils; conditions: for Selectivity versus Abeta and tau46 fibrils: saturation binding to alpha-synuclein vs Abeta and tau46 fibrils
T1 construct: made in house; host or cells: E. coli
Protocol: (§1) Alpha-synuclein and tau46 were purified from E. coli according to established protocols (Nuscher B, et al., J. Biol. Chem., 2004; 279(21):21966-75), Aβ1-42 was obtained from rPeptide, Watkinsville, Ga., USA. Fibrils were prepared by aggregation of recombinant protein via constant agitation. In detail, 70 μM of alpha-synuclein mixed with 100 mM NaCl in 50 mM Tris, pH 7.0+0.02% NaN3 were incubated at 1,400 rpm, 37° C. for 96 h. 10 μM of tau46 were incubated with 0.03 mg/ml heparin in 50 mM Tris, pH=7.0 at 1,000 rpm, 37° C. for 72 h. Aβ1-42 was solved in 20 mM NaPi, pH=8.0+0.2 mM EDTA+0.02% NaN3 (Deeg A A, et al., Biochim. Biophys. Acta, 2015; 1850(9): 1884-90; Goedert M, et al. Nature, 1996; 383(6600): 550-3).
Sonicated αSYN (0.04 μM) or tau46 (0.4 μM) or Aβ1-42 (6 μM) fibrils diluted in PBS were incubated with decreasing concentrations of [^3H]-labeled compound (48 nM or 24 nM-[…]) in 50 mM Tris-base, 10% ethanol, 0.05% Tween20, pH 7.4. To determine non-specific binding, the respective unlabeled compound (400 nM) was added to a duplicate set of binding reactions.
Assay plates were incubated under agitation at 37° C. for 2 h, covered by plastic foil (Resealable tape, PerkinElmer, Waltham, Mass., USA). Prior to harvesting, a filter (Printed filtermat B, PerkinElmer, Waltham, Mass., USA) was incubated with 5 mg/mL polyethylenimine (PEI, Poly(ethyleneimine) solution, Sigma Aldrich Chemie GmbH, Taufkirchen, Germany) at 4° C. for 30 min. After incubation, bound and free ligands were separated by vacuum filtration using a harvester (Filtermate harvester, PerkinElmer, Waltham, Mass., USA). The filter was washed three times with buffer cooled to 4° C. and subsequently dried in the microwave oven for 2 min at medium power. Melt-on scintillator sheets (MeltiLex™ B/HS, PerkinElmer, Waltham, Mass., USA) were molten into the filter using a heating plate set to 120° C. After solidifying at room temperature, the filter was sealed in a plastic bag (Sample bag for MicroBeta®, PerkinElmer, Waltham, Mass., USA). Accumulation of tritium was counted in a liquid scintillation counter (Wallac MicroBeta® TriLux, 1450 LSC & Luminescence Counter, PerkinElmer, Waltham, Mass., USA) immediately. Radioactivity was plotted against the increasing tritium-labeled compound or cold compound concentrations. Data points were fitted using nonlinear regression analysis in GraphPad Prism (GraphPad Software, Inc., Version 7.03, La Jolla, Calif., USA).
The fibril-binding saturation assay provides KD values. This assay is performed with directly radioactively labeled compounds (e.g. ^3H labeling). The saturation binding assays were performed using as target structures fibrillar aggregates produced from recombinant human alpha-synuclein, Aβ1-42, and tau46, respectively.

aggregated Abeta = molecular target: T2, aggregated Abeta (Homo sapiens, UniProt P05067); experiment: Saturation binding assay, protocol 2a, Abeta fibrils; conditions: saturation assay protocol 2a, [3H]-labeled compound
T2 construct: Aβ1-42 was obtained from rPeptide; purchased rPeptide, Watkinsville, Ga., USA
Protocol: as §1
Sonicated αSYN (0.04 μM) or tau46 (0.4 μM) or Aβ1-42 (6 μM) fibrils diluted in PBS were incubated with decreasing concentrations of [^3H]-labeled compound (48 nM or 24 nM-[…]) in 50 mM Tris-base, 10% ethanol, 0.05% Tween20, pH 7.4. […]
Assay plates were incubated under agitation at 37° C. for 2 h, covered by plastic foil (Resealable tape, PerkinElmer, Waltham, Mass., USA). […] Accumulation of tritium was counted in a liquid scintillation counter (Wallac MicroBeta® TriLux, 1450 LSC & Luminescence Counter, PerkinElmer, Waltham, Mass., USA) immediately. Radioactivity was plotted against the increasing tritium-labeled compound or cold compound concentrations. […]

[2] = molecular target: T3, alpha-synuclein (sonicated fibrils) (Homo sapiens, UniProt P37840); experiment: Modified competition binding assay, protocol 3b, reference ligand [3H]-compound 1; conditions: reference ligand [3H]-compound 1 (1 nM)
T3 construct: made in house; host or cells: E. coli
Protocol: Fibrils were prepared by aggregation of recombinant protein via constant agitation. In detail, 70 μM of alpha-synuclein mixed with 100 mM NaCl in 50 mM Tris, pH 7.0+0.02% NaN3 were incubated at 1,400 rpm, 37° C. for 96 h. 10 μM of tau46 were incubated with 0.03 mg/ml heparin in 50 mM Tris, pH=7.0 at 1,000 rpm, 37° C. for 72 h.
Plates were incubated for 4.5 hours at RT covered by removable sealing tape (PerkinElmer, Waltham, Mass., USA).
Filtration and readout were performed as described for saturation binding assays.
The fibril competition assay provides Ki values. […] This assay is suitable for a screening of non-radioactive ligands.

[3] = tested on: H4 cells overexpressing alpha-synuclein hemi-Venus fusion constructs (V1S+SV2); experiment: Cellular model of aggregated alpha-synuclein-dependent toxicity, V1S+SV2 H4 cells; format: cell-based; conditions: 10 μM compound, 100 μM FeCl3, 0.75% DMSO, 48 h; for inhibition at 10 µM: read-out: Change in fraction of condensed nuclei (rel. to DMSO control) [%]
Protocol: (§2) To identify potential therapeutically useful effects, compounds were tested in two cellular models of aggregated alpha-synuclein-dependent toxicity in H4 cells. These cellular models allow for the inducible overexpression of alpha-synuclein hemi-Venus fusion constructs (V1S+SV2) or full-length alpha-synuclein (the model is described in detail in: Bartels M, Weckbecker D, Kuhn P H, Ryazanov S, Leonov A, Griesinger C, Lichtenthaler S F, Bötzel K, Giese A: Iron-mediated aggregation and toxicity in a novel neuronal cell culture model with inducible alpha-synuclein expression, Sci. Rep. 2019 Jun. 24; 9(1):9100). Moreover, addition of DMSO and FeCl3 promotes the aggregation of alpha-synuclein which is associated with an increase in cytotoxicity. The cell culture assay uses these effects by determining the change in the number of cells and the change in the percentage of condensed nuclei, which is indicative of apoptosis, in order to obtain information on which compounds show the most promising effects and thus might be therapeutically useful.
(§3) In these experiments, cells were incubated with 100 μM FeCl3 and 0.75% DMSO in the presence of 10 μM anle138c as a positive control, compounds 1 to 19 (10 μM), or DMSO as a negative control. After 48 h, the cells were imaged with an OPERA high-throughput imaging system and analyzed using Acapella software (Perkin Elmer). […] A reduction in the fraction of condensed nuclei (in the absence of a strong reduction in cell number) is indicative of a beneficial therapeutic effect.

[4] = tested on: H4 cells overexpressing full-length alpha-synuclein; experiment: Cellular model of aggregated alpha-synuclein-dependent toxicity, full-length alpha-synuclein H4 cells; format: cell-based; conditions: 10 μM compound, 100 μM FeCl3, 0.75% DMSO, 48 h; for inhibition at 10 µM: read-out: Change in fraction of condensed nuclei (rel. to DMSO control) [%]
Protocol: as §2, §3

[5] = fibril-binding saturation assay, summary statement, read-out: KD values, alpha-synuclein fibrils
[6] = saturation assay protocol 2a, [3H]-labeled compound, read-out: KD [nM] for aggregated alpha-synuclein

T2 sequence (P05067 672-713 limits assumed): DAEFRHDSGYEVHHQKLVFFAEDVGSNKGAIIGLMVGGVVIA

CN(C)c1ccc(-c2cc(-c3ccnc(Br)c3)[nH]n2)cc1 [Compound 1, 4-[3-(4-dimethylamino-phenyl)-1H-pyrazol-5-yl]-2-bromopyridine] was tested, and the Kd [1, 5] was < 10 nM, the Kd [1, 6] was < 2 nM and the “Selectivity versus Abeta and tau46 fibrils” value [1] was “good to excellent selectivity”. For the same compound, the Kd (aggregated Abeta) was > 100 nM, the Ki ([2]; Table 6 comparison series, read-out: Ki (nM), sonicated alpha-synuclein fibrils) was 0.4 nM and the “Change in cell number (rel. to DMSO control) [%]” value (shortened to “Change in cell number … [%]”) [3] was −21.2%. For the same compound, the inhibition at 10 µM [3] was 11.7%, the “Change in cell number … [%]” value [4] was −27.3% and the inhibition at 10 µM [4] was 65.4%.
With CNc1ccc(-c2cc(-c3ccnc(Br)c3)[nH]n2)cc1 [Compound 2, 4-[5-(2-bromopyridin-4-yl)-1H-pyrazol-3-yl]-N-methylaniline] the Kd [1, 5] was < 10 nM, the Kd [1, 6] was < 1 nM and the “Selectivity versus Abeta and tau46 fibrils” value [1] was “good to excellent selectivity”. For the same compound, the Kd (aggregated Abeta) was > 100 nM, the Ki ([2]; Table 4b, read-out: Ki (nM) alpha-synuclein (sonicated fibrils)) was 0.3 nM and the “Change in cell number … [%]” value [3] was −25.8%. The inhibition at 10 µM [3] was 49.4%, the “Change in cell number … [%]” value [4] was −44.2% and the inhibition at 10 µM [4] was 79%.
In the case of Fc1cc(-c2cc(-c3ccc4c(c3)OCO4)n[nH]2)ccn1 [Compound 12, 4-[3-(1,3-benzodioxol-5-yl)-1H-pyrazol-5-yl]-2-fluoropyridine], the Kd [1, 5] is reported as < 10 nM, the Kd [1, 6] is reported as 7 nM and the “Change in cell number … [%]” value [3] is reported as −22.2%. The inhibition at 10 µM [3] was -24.9%, the “Change in cell number … [%]” value [4] was −9.8% and the inhibition at 10 µM [4] was -28.4%.
